Assay results taken from patent publication US20210338820A1, “PHARMACEUTICAL COMPOSITION COMPRISING ANTIEMETIC COMPOUNDS AND POLYORTHOESTER” (Heron Therapeutics, Inc., priority 2012, published 2021).

Key:
[1] = In-vitro release of formulation of aprepitant and granisetron (Example 1 formulation); assay type: physicochemical; conditions: 37° C.; for active agent released from the formulation: Example 1 formulation, PBS + 2% CTAB; for in vitro release proceeded in a linear fashion up to: Example 1 semi-solid polyorthoester formulation, phosphate buffered saline + 2% CTAB, HPLC, FIG. 3
Description: In a first embodiment, 375 mg of aprepitant was dissolved in 1.3 g of a polyorthoester-compatible liquid excipient, dimethyl sulfoxide, and heated until completely dissolved. […] In a further embodiment, the formulation was weighed into vials and filled with a phosphate buffered saline solution and 2% CTAB (cetrimonium bromide). The vials were then stored at 37° C. Aliquots were taken daily and analyzed by HPLC to monitor for the release of granisetron and aprepitant from the formulation.
A formulation as described in Example 1 was weighed into vials and filled with a phosphate buffered saline solution and 2% CTAB (cetrimonium bromide). The vials were then stored at 37° C. Aliquots were taken daily and analyzed by HPLC to monitor for the release of granisetron and aprepitant from the formulation.

[2] = dog, in vivo, sc
[3] = In vitro release of a formulation containing aprepitant (Example 3 formulation); assay type: physicochemical; conditions: Example 3 semi-solid polyorthoester formulation; PBS + 2% CTAB, 37° C., HPLC, FIG. 4
[4] = In-vitro release of formulation of fosaprepitant and granisetron (Example 6 formulation); assay type: physicochemical; conditions: 37° C.; for active agent released from the formulation: Example 6 formulation, PBS; for in vitro release proceeded in a linear fashion up to: Example 6 semi-solid polyorthoester formulation, phosphate buffered saline, HPLC, FIG. 1
Excerpt: In a fifth embodiment, a formulation as described in Example 6 was weighed into vials and filled with a phosphate buffered saline solution.
A formulation as described in Example 6 was weighed into vials and filled with a phosphate buffered saline solution.

Q: With `C[C@@H](O[C@H]1OCCN(Cc2n[nH]c(=O)[nH]2)[C@H]1c1ccc(F)cc1)c1cc(C(F)(F)F)cc(C(F)(F)F)c1` [aprepitant] as the molecule, how does the “active agent released from the formulation” value (“active agent released” for short) ([1]; after about 120 hours) read?
A: Its value is “about 90%”.

Q: And the “active agent released” value ([1]; at about 48 hours)?
A: The value was “about 65%”.

Q: What about the “active agent released” value ([1]; at about 144 hours) of the same molecule?
A: Its value is “Essentially all”.

Q: What about the “in vitro release proceeded in a linear fashion up to” value (“in vitro release proceeded” below) [1] of the same molecule?
A: The value was “about 48 hours”.

Q: What about the “bioavailability (areas under the curves)” value [2] of the same molecule?
A: Its value is “good bioavailability”.

Q: What about the “in vitro release proceeded” value [3] of the same molecule?
A: Its value is “about 72 hours”.

Q: What about the “active agent released” value ([4]; at about 100 hours) of the same molecule?
A: The value was “about 65%”.

Q: For `C[C@@H](O[C@H]1OCCN(Cc2nc(O)n(P(=O)(O)O)n2)[C@H]1c1ccc(F)cc1)c1cc(C(F)(F)F)cc(C(F)(F)F)c1` [fosaprepitant], which “active agent released” value ([4]; after about 60 hours) is on record?
A: Its value is “about 60%”.

Q: What about the “active agent released” value ([4]; at about 45 hours) of the same molecule?
A: Its value is “about 25%”.

Q: And the “in vitro release proceeded” value [4]?
A: Its value is “about 45 hours”.

Q: With `CN1C2CCCC1CC(NC(=O)c1nn(C)c3ccccc13)C2` (centres unmarked) [granisetron] as the molecule, how does the “active agent released” value ([1]; at about 48 hours) read?
A: The value was “about 65%”.

Q: What about the “active agent released” value ([1]; at about 144 hours) of the same molecule?
A: Its value is “about 90%”.

Q: What about the “in vitro release proceeded” value [1] of the same molecule?
A: The value was “about 48 hours”.

Q: What about the “active agent released” value ([4]; after about 60 hours) of the same molecule?
A: The value was “about 80%”.

Q: And the “active agent released” value ([4]; at about 45 hours)?
A: The value was “about 25%”.

Q: What about the “active agent released” value ([4]; at about 100 hours) of the same molecule?
A: Its value is “Nearly all”.

Q: And the “in vitro release proceeded” value [4]?
A: The value was “about 45 hours”.
